Converted amounts (≈) assume the structure as drawn.
System: G(−) bacterial strains
Test: Dilution antimicrobial susceptibility tests (MIC, NCCLS agar dilution / broth dilution)
Assay type: cell-based, Gram-negative organisms
Conditions: unit assumed
Protocol: The MIC (minimum inhibitory concentration) was determined by the NCCLS (National Committee for Clinical Laboratory Standards) methods 2000. Methods for dilution antimicrobial susceptibility testing for bacteria that growth aerobically (M7-A5, vol. 20, No. 2). The agar dilution method for determining antimicrobial susceptibility was carried out using Mueller-Hinton agar. A final inoculum of 10^4 CFU/spot was applied with an inoculation device. Broth dilution tests were performed with 5×10^5 CFU/well in 96 well plates. The susceptibilities of streptococci were determined by Mueller-Hinton agar supplemented with 5% sheep blood. All assays were run with the indicated control strains, available from the ATCC (American Type Culture Collection, Rockville, Md.).
Abbreviations used in Table 1 are defined as follows: Cf-R: Ceftazidime Resistance, Ci-R: Ciprofloxacin Resistance, Gen-R: Gentamycin Resistance, Imp-R: Imipenem Resistance, Mp-R: Meropenem Resistance, Ofx-R: Ofloxacin Resistance, B+: β-lactamase Production, AmpC: AmpC-lactamase Hyper production, CBPase: Carbapenemase Production.

[1] = strain #1 Acinetobacter calcoaceticus
[2] = strain #2 Acinetobacter baumannii, Cf-R, Ci-R
[3] = strain #3 Acinetobacter baumannii, Cf-R, Ci-R, Mp-I
[4] = strain #4 Acinetobacter baumannii, Cf-R, Imp-I, CBPase
[5] = strain #7 Enterobacter aerogenes
[6] = strain #8 Enterobacter cloacae, Cf-R, B+
[7] = strain #9 Enterobacter cloacae, Cf-R
[8] = strain #10 Escherichia coli, Ci-R
[9] = strain #11 Escherichia coli, Ci-R, AmpC
[10] = strain #15 Klebsiella pneumoniae
[11] = strain #16 Moraxella catarrhalis
[12] = strain #21 Providencia rettgeri
[13] = strain #22 Salmonella typhimurium
[14] = strain #25 Shigella dysenteriae
[15] = strain #28 Stenotrophomonas maltophilia
[16] = strain #29 Pseudomonas aeruginosa
[17] = strain #30 Pseudomonas aeruginosa
[18] = strain #31 Pseudomonas aeruginosa, Ofx-R
[19] = strain #32 Pseudomonas aeruginosa, Cf-R
[20] = strain #33 Pseudomonas aeruginosa, Ci-R
[21] = strain #34 Pseudomonas aeruginosa, Gen-R
[22] = strain #35 Pseudomonas aeruginosa, Ip-R
[23] = strain #36 Pseudomonas aeruginosa, Cf-R, Ci-R, Mp-R

Row | Compound | MIC [1] | MIC [2] | MIC [3] | MIC [4] | MIC (strain #5 Citrobacter diversus) | MIC (strain #6 Citrobacter freundii) | MIC [5] | MIC [6] | MIC [7] | MIC [8] | MIC [9] | MIC (strain #12 Escherichia coli) | MIC (strain #13 Escherichia coli) | MIC (strain #14 Klebsiella oxytoca) | MIC [10] | MIC [11] | MIC (strain #17 Morganella Morganii) | MIC (strain #18 Morganella Morganii) | MIC (strain #19 Proteus vulgaris) | MIC (strain #20 Proteus mirabilis) | further results
1 | C[C@@H](O)C1C(=O)N2C(C(=O)O)=C(CN3CC[C@H](NS(N)(=O)=O)C3)[C@H](C)C12 (stereo partly drawn) [Compound 72] | 1 µg/mL (≈ 2.57 µM) | 2 µg/mL (≈ 5.15 µM) | 4 µg/mL (≈ 10.3 µM) | 4 µg/mL (≈ 10.3 µM) | 0.5 µg/mL (≈ 1.29 µM) | 0.5 µg/mL (≈ 1.29 µM) | 1 µg/mL (≈ 2.57 µM) | 0.25 µg/mL (≈ 0.644 µM) | 1 µg/mL (≈ 2.57 µM) | 0.25 µg/mL (≈ 0.644 µM) | 0.25 µg/mL (≈ 0.644 µM) | 0.25 µg/mL (≈ 0.644 µM) | 0.5 µg/mL (≈ 1.29 µM) | 1 µg/mL (≈ 2.57 µM) | 0.5 µg/mL (≈ 1.29 µM) | 0.016 µg/mL (≈ 0.0412 µM) | 4 µg/mL (≈ 10.3 µM) | 4 µg/mL (≈ 10.3 µM) | 2 µg/mL (≈ 5.15 µM) | 0.5 µg/mL (≈ 1.29 µM) | MIC [12]: 2 µg/mL (≈ 5.15 µM); MIC [13]: 0.5 µg/mL (≈ 1.29 µM); MIC (strain #23 Serratia marcescens): 1 µg/mL (≈ 2.57 µM); MIC (strain #24 Serratia marcescens): 1 µg/mL (≈ 2.57 µM); MIC [14]: 0.5 µg/mL (≈ 1.29 µM); MIC (strain #26 Shigella sonnei): 0.5 µg/mL (≈ 1.29 µM); MIC (strain #27 Shigella flexneri): 0.25 µg/mL (≈ 0.644 µM); MIC [15]: 0.5 µg/mL (≈ 1.29 µM); MIC [16]: 8 µg/mL (≈ 20.6 µM); MIC [17]: 8 µg/mL (≈ 20.6 µM); MIC [18]: 2 µg/mL (≈ 5.15 µM); MIC [19]: 4 µg/mL (≈ 10.3 µM); MIC [20]: 8 µg/mL (≈ 20.6 µM); MIC [21]: 8 µg/mL (≈ 20.6 µM); MIC [22]: 8 µg/mL (≈ 20.6 µM); MIC [23]: 32 µg/mL (≈ 82.4 µM)
2 | C[C@@H](O)C1C(=O)N2C(C(=O)O)=C(CN3CC[C@H](NC(N)=O)C3)[C@H](C)C12 (stereo partly drawn) [Compound 78] | 2 µg/mL (≈ 5.68 µM) | 2 µg/mL (≈ 5.68 µM) | 4 µg/mL (≈ 11.4 µM) | 4 µg/mL (≈ 11.4 µM) | 0.5 µg/mL (≈ 1.42 µM) | 0.5 µg/mL (≈ 1.42 µM) | 2 µg/mL (≈ 5.68 µM) | 0.5 µg/mL (≈ 1.42 µM) | 1 µg/mL (≈ 2.84 µM) | 0.5 µg/mL (≈ 1.42 µM) | 0.5 µg/mL (≈ 1.42 µM) | 0.5 µg/mL (≈ 1.42 µM) | 1 µg/mL (≈ 2.84 µM) | 1 µg/mL (≈ 2.84 µM) | 1 µg/mL (≈ 2.84 µM) | 0.016 µg/mL (≈ 0.0454 µM) | 8 µg/mL (≈ 22.7 µM) | 4 µg/mL (≈ 11.4 µM) | 4 µg/mL (≈ 11.4 µM) | 1 µg/mL (≈ 2.84 µM) | MIC [12]: 4 µg/mL (≈ 11.4 µM); MIC [13]: 1 µg/mL (≈ 2.84 µM); MIC (strain #23 Serratia marcescens): 2 µg/mL (≈ 5.68 µM); MIC (strain #24 Serratia marcescens): 2 µg/mL (≈ 5.68 µM); MIC [14]: 1 µg/mL (≈ 2.84 µM); MIC (strain #26 Shigella sonnei): 1 µg/mL (≈ 2.84 µM); MIC (strain #27 Shigella flexneri): 0.5 µg/mL (≈ 1.42 µM); MIC [15]: 1 µg/mL (≈ 2.84 µM); MIC [16]: 8 µg/mL (≈ 22.7 µM); MIC [17]: 8 µg/mL (≈ 22.7 µM); MIC [18]: 2 µg/mL (≈ 5.68 µM); MIC [19]: 16 µg/mL (≈ 45.4 µM); MIC [20]: 16 µg/mL (≈ 45.4 µM); MIC [21]: 16 µg/mL (≈ 45.4 µM); MIC [22]: 16 µg/mL (≈ 45.4 µM); MIC [23]: > 32 µg/mL
3 | C[C@@H](O)C1C(=O)N2C(C(=O)O)=C(CN3CC[C@H](NCC(N)=O)C3)[C@H](C)C12 (stereo partly drawn) [Compound 83] | 2 µg/mL (≈ 5.46 µM) | 4 µg/mL (≈ 10.9 µM) | 8 µg/mL (≈ 21.8 µM) | 8 µg/mL (≈ 21.8 µM) | 0.5 µg/mL (≈ 1.36 µM) | 1 µg/mL (≈ 2.73 µM) | 4 µg/mL (≈ 10.9 µM) | 0.5 µg/mL (≈ 1.36 µM) | 1 µg/mL (≈ 2.73 µM) | 0.5 µg/mL (≈ 1.36 µM) | 0.5 µg/mL (≈ 1.36 µM) | 0.5 µg/mL (≈ 1.36 µM) | 1 µg/mL (≈ 2.73 µM) | 2 µg/mL (≈ 5.46 µM) | 1 µg/mL (≈ 2.73 µM) | 0.031 µg/mL (≈ 0.0846 µM) | 8 µg/mL (≈ 21.8 µM) | 8 µg/mL (≈ 21.8 µM) | 4 µg/mL (≈ 10.9 µM) | 1 µg/mL (≈ 2.73 µM) | MIC [12]: 4 µg/mL (≈ 10.9 µM); MIC [13]: 1 µg/mL (≈ 2.73 µM); MIC (strain #23 Serratia marcescens): 2 µg/mL (≈ 5.46 µM); MIC (strain #24 Serratia marcescens): 2 µg/mL (≈ 5.46 µM); MIC [14]: 1 µg/mL (≈ 2.73 µM); MIC (strain #26 Shigella sonnei): 1 µg/mL (≈ 2.73 µM); MIC (strain #27 Shigella flexneri): 0.5 µg/mL (≈ 1.36 µM); MIC [15]: 1 µg/mL (≈ 2.73 µM); MIC [16]: 16 µg/mL (≈ 43.7 µM); MIC [17]: 16 µg/mL (≈ 43.7 µM); MIC [18]: 8 µg/mL (≈ 21.8 µM); MIC [19]: 16 µg/mL (≈ 43.7 µM); MIC [20]: 16 µg/mL (≈ 43.7 µM); MIC [21]: 32 µg/mL (≈ 87.3 µM); MIC [22]: 32 µg/mL (≈ 87.3 µM); MIC [23]: > 32 µg/mL
4 | C[C@@H](O)C1C(=O)N2C(C(=O)O)=C(CN3CC[C@H](NC=N)C3)[C@H](C)C12 (stereo partly drawn) [Compound 84] | 0.25 µg/mL (≈ 0.743 µM) | 0.5 µg/mL (≈ 1.49 µM) | 1 µg/mL (≈ 2.97 µM) | 1 µg/mL (≈ 2.97 µM) | 0.25 µg/mL (≈ 0.743 µM) | 0.5 µg/mL (≈ 1.49 µM) | 1 µg/mL (≈ 2.97 µM) | 0.25 µg/mL (≈ 0.743 µM) | 0.5 µg/mL (≈ 1.49 µM) | 0.25 µg/mL (≈ 0.743 µM) | 0.25 µg/mL (≈ 0.743 µM) | 0.25 µg/mL (≈ 0.743 µM) | 0.5 µg/mL (≈ 1.49 µM) | 0.5 µg/mL (≈ 1.49 µM) | 0.5 µg/mL (≈ 1.49 µM) | ≤ 0.008 µg/mL | 4 µg/mL (≈ 11.9 µM) | 2 µg/mL (≈ 5.95 µM) | 1 µg/mL (≈ 2.97 µM) | 0.5 µg/mL (≈ 1.49 µM) | MIC [12]: 2 µg/mL (≈ 5.95 µM); MIC [13]: 0.5 µg/mL (≈ 1.49 µM); MIC (strain #23 Serratia marcescens): 1 µg/mL (≈ 2.97 µM); MIC (strain #24 Serratia marcescens): 1 µg/mL (≈ 2.97 µM); MIC [14]: 0.5 µg/mL (≈ 1.49 µM); MIC (strain #26 Shigella sonnei): 0.5 µg/mL (≈ 1.49 µM); MIC (strain #27 Shigella flexneri): 0.25 µg/mL (≈ 0.743 µM); MIC [15]: 0.25 µg/mL (≈ 0.743 µM); MIC [16]: 2 µg/mL (≈ 5.95 µM); MIC [17]: 2 µg/mL (≈ 5.95 µM); MIC [18]: 0.5 µg/mL (≈ 1.49 µM); MIC [19]: 2 µg/mL (≈ 5.95 µM); MIC [20]: 2 µg/mL (≈ 5.95 µM); MIC [21]: 2 µg/mL (≈ 5.95 µM); MIC [22]: 4 µg/mL (≈ 11.9 µM); MIC [23]: 16 µg/mL (≈ 47.6 µM)

— patent publication US9937151B2, “Carbapenem antibacterials with gram-negative activity” (priority 2010, dated 2018)
